Reference: US20230242544A1, “QUINAZOLINE COMPOUNDS, PREPARATION METHODS AND USES THEREOF” (INVENTISBIO CO., LTD., priority 2020, published 2023)

Columns and labels:
[1] = molecular target: recombinant human KRAS^G12D protein (Homo sapiens, UniProt P01116, G12D); test: Temperature-dependent Fluorescence (TdF) KRAS G12D protein binding assay; settings: 6 μM KRAS^G12D protein, 10 μM compound, Sypro Orange; Kd calculated from the fluorescent shift
Method: The Temperature-dependent Fluorescence (TdF) assay was used to analyze binding affinity of compound to recombinant human KRAS^G12D protein. The TdF assay was conducted in the 96-well-based real-time fluorescence plate reader (ABI 7500 or Roche LightCycler 480). Fluorescent dye Sypro Orange (Sigma) was used to monitor the protein folding-unfolding transition. Protein-compound binding was gauged by the shift in the unfolding transition temperature (ΔTm) acquired with and without compound. Each reaction sample consists of 6 μM KRAS^G12D Protein, 10 μM compound, and Sypro Orange dye (in 1% DMSO) in 20 μL reaction buffer (25 mM HEPES pH 7.5, 150 mM NaCl, 10 mM MgCl2). […] Binding affinity (Kd value) was calculated based on the degree of fluorescent shift of the protein with and without compound.

[2] = molecular target: Ba/F3_KRAS^G12D cells (Homo sapiens, UniProt P01116, G12D, cells depend on it); test: Ba/F3 KRAS G12D cell proliferation assay (CellTiter-Glo); assay type: cell-based; settings: treated for 3 days, cell-titer Glo, cell growth inhibition, read-out: BaF3_KRAS^G12D IC50
Method: Ba/F3_KRAS^G12D cells (KYinno, China) were generated by transducing Ba/F3 parental cells with the recombinant KRAS^G12D lentivirus and followed by 1 ug/mL of puromycin selection and IL3 depletion. […] Cells were seeded at a density of 5×10^3 per well into 96-well plate and incubated overnight. Serial diluted compounds were added to each well. Cells were treated with the compounds for 3 days, after which cell-titer Glo reagent (Promega #G7572) was used to assess cell proliferation. The luminescence signal was then collected on Tecan Spark plate reader. […] Cell growth inhibition of IC50 is calculated with the equation of Y=Bottom+(Top−Bottom)/(1+10^((Log IC50−X)*Hill Slope))

Ba/F3_KRAS^G12D cells, sequence (P01116 whole entry G12D): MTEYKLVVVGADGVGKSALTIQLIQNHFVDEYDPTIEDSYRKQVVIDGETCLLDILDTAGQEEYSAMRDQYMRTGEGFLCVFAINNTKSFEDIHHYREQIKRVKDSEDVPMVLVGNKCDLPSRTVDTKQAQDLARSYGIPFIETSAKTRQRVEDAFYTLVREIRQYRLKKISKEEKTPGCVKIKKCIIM
recombinant human KRAS^G12D protein, sequence (P01116 1-188 isoform P01116-2 G12D): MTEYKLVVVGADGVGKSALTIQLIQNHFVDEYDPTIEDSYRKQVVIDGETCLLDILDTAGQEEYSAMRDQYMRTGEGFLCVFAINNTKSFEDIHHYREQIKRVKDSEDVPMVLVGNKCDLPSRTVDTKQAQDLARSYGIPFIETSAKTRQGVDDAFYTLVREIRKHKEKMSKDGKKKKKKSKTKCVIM

Row | SMILES | Kd [1] | GI50 [2]
1 | Oc1cc(-c2c(Cl)cc3c(N4CC5CCC(C4)N5)nc(OC[C@@]45CCCN4C[C@H](F)C5)nc3c2F)c2c(Cl)c(F)ccc2c1 (single isomer, unassigned) [Compound 138] | < 0.5 µM | < 0.5 µM
2 | Oc1cc(-c2c(Cl)cc3c(N4CC5CCC(C4)N5)nc(OC[C@@]45CCCN4C[C@H](F)C5)nc3c2F)c2c(Cl)c(F)ccc2c1 (single isomer, unassigned) [Compound 139] | < 0.5 µM | < 0.5 µM
3 | C#Cc1c(F)ccc2cc(O)cc(-c3c(Cl)cc4c(N5CC6CCC(C5)N6)nc(OC[C@@]56CCCN5C[C@H](F)C6)nc4c3F)c12 (single isomer, unassigned) [Compound 154] | < 0.5 µM | < 0.5 µM
4 | CN1CCC[C@H]1COc1nc(N2CCNCC2)c2cc(Cl)c(-c3cc(O)cc4ccccc34)c(F)c2n1 [Compound 1] | > 5 µM | 0.5 to 5 µM
5 | CN1CCC[C@H]1COc1nc(N2CC3CCC(C2)N3)c2cc(Cl)c(-c3cc(O)cc4ccccc34)c(F)c2n1 [Compound 2] | < 0.5 µM | 0.5 to 5 µM
6 | C[C@H]1CNCCN1c1nc(OC[C@@H]2CCCN2C)nc2c(F)c(-c3cc(O)cc4ccccc34)c(Cl)cc12 [Compound 3] | > 5 µM | 0.5 to 5 µM
7 | CN1CCC[C@H]1COc1nc(N2CC3CCC(C2)N3)c2cc(Cl)c(-c3c(O)cccc3F)c(F)c2n1 [Compound 4] | 0.5 to 5 µM | > 5 µM
8 | CN(C)CCCOc1nc(N2CC3CCC(C2)N3)c2cc(Cl)c(-c3cc(O)cc4ccccc34)c(F)c2n1 [Compound 5] | 0.5 to 5 µM | 0.5 to 5 µM
9 | CN(C)CCCOc1nc(N2CC3CCC(C2)N3)c2cc(Cl)c(-c3cccc4cccc(Cl)c34)c(F)c2n1 [Compound 6] | > 5 µM | 0.5 to 5 µM
10 | CN1CCC[C@H]1COc1nc(N2CC3CCC(C2)N3)c2cc(Cl)c(-c3cccc4cccc(Cl)c34)c(F)c2n1 [Compound 7] | > 5 µM | 0.5 to 5 µM
11 | CN(C)CCCOc1nc(N2CC3CCC(C2)N3)c2cc(Cl)c(-c3c(O)cccc3F)c(F)c2n1 [Compound 8] | > 5 µM | > 5 µM
12 | CN1CCC[C@H]1COc1nc(N2CC3CCCC(C2)N3)c2cc(Cl)c(-c3cc(O)cc4cccc(Cl)c34)c(F)c2n1 [Compound 11] | 0.5 to 5 µM | 0.5 to 5 µM
13 | CN1CCC[C@H]1COc1nc(N2CCNC(CC(N)=O)C2)c2cc(Cl)c(-c3cc(O)cc4ccccc34)c(F)c2n1 (some centres unmarked) [Compound 12] | > 5 µM | > 5 µM
14 | Nc1cccc(F)c1-c1c(Cl)cc2c(N3CCNCC3)nc(OCC34CCCN3CCC4)nc2c1F [Compound 14] | > 5 µM | > 5 µM
15 | CNC1CCN(c2nc(OC[C@@H]3CCCN3C)nc3c(F)c(-c4cc(O)cc5cccc(Cl)c45)c(Cl)cc23)C1 (some centres unmarked) [Compound 16] | > 5 µM | 0.5 to 5 µM
16 | CN1CCC[C@H]1COc1nc(N2CC3(CNC3)C2)c2cc(Cl)c(-c3cc(O)cc4cccc(Cl)c34)c(F)c2n1 [Compound 17] | > 5 µM | > 5 µM
17 | CN1CCC[C@H]1COc1nc(N2CCC3NCC32)c2cc(Cl)c(-c3cc(O)cc4cccc(Cl)c34)c(F)c2n1 (some centres unmarked) [Compound 18] | > 5 µM | 0.5 to 5 µM
18 | CN1CCC[C@H]1COc1nc(N2CC3(CCNC3)C2)c2cc(Cl)c(-c3cc(O)cc4cccc(Cl)c34)c(F)c2n1 [Compound 19] | > 5 µM | > 5 µM
19 | C[C@@H]1CN(c2nc(OC[C@@H]3CCCN3C)nc3c(F)c(-c4cc(O)cc5cccc(Cl)c45)c(Cl)cc23)[C@@H](C)CN1 [Compound 21] | > 5 µM | 0.5 to 5 µM
20 | C[C@H]1CNCCN1c1nc(OC[C@@H]2CCCN2C)nc2c(F)c(-c3cc(O)cc4cccc(Cl)c34)c(Cl)cc12 [Compound 22] | > 5 µM | 0.5 to 5 µM
21 | CN1CCC[C@H]1COc1nc(N2CCNCC23CC3)c2cc(Cl)c(-c3cc(O)cc4cccc(Cl)c34)c(F)c2n1 [Compound 23] | 0.5 to 5 µM | 0.5 to 5 µM
22 | CN1CCC[C@H]1COc1nc(N2C[C@H]3NCC[C@H]32)c2cc(Cl)c(-c3cc(O)cc4cccc(Cl)c34)c(F)c2n1 [Compound 25] | > 5 µM | 0.5 to 5 µM
23 | CN1CCC[C@H]1COc1nc(N2CC3CCC(C2)N3)c2cc(Cl)c(-c3nc(N)cc4ccccc34)c(F)c2n1 [Compound 27] | > 5 µM | 0.5 to 5 µM
24 | Fc1c(-c2cccc3cccc(Cl)c23)c(Cl)cc2c(N3CCNCC3)nc(OCC34CCCN3CCC4)nc12 [Compound 28] | > 5 µM | < 0.5 µM
25 | Oc1cc(-c2c(Cl)cc3c(N4CCNCC4)nc(OCC45CCCN4CCC5)nc3c2F)c2ccccc2c1 [Compound 29] | > 5 µM | 0.5 to 5 µM

Row | SMILES | Kd [1] | GI50 [2]
26 | CN1CCC[C@H]1COc1nc(N2CC3CCC(C2)N3)c2cc(Cl)c(-c3c(N)cccc3F)c(F)c2n1 [Compound 31] | > 5 µM | 0.5 to 5 µM
27 | Nc1cccc(F)c1-c1c(Cl)cc2c(N3CC4CCC(C3)N4)nc(OCC34CCCN3CCC4)nc2c1F [Compound 32] | 0.5 to 5 µM | > 5 µM
28 | Oc1cc(-c2c(Cl)cc3c(N4C5CCC4CNC5)nc(OCC45CCCN4CCC5)nc3c2F)c2ccccc2c1 [Compound 33] | < 0.5 µM | 0.5 to 5 µM
29 | CN1CC(F)(F)CC1COc1nc(N2CC3CCC(C2)N3)c2cc(Cl)c(-c3cc(O)cc4cccc(Cl)c34)c(F)c2n1 (centres unmarked) [Compound 35] | 0.5 to 5 µM | 0.5 to 5 µM
30 | C[C@@H]1CN(c2nc(OCC3CN(C)C3)nc3c(F)c(-c4cc(O)cc5ccccc45)c(Cl)cc23)[C@@H](C)CN1 [Compound 36] | > 5 µM | 0.5 to 5 µM
31 | CN(C)C1CN(c2nc(N3CC4CCC(C3)N4)c3cc(Cl)c(-c4cc(O)cc5ccccc45)c(F)c3n2)C1 [Compound 39] | > 5 µM | 0.5 to 5 µM
32 | CN1CC2CN(c3nc(N4CC5CCC(C4)N5)c4cc(Cl)c(-c5cc(O)cc6ccccc56)c(F)c4n3)CC2C1 (centres unmarked) [Compound 40] | > 5 µM | 0.5 to 5 µM
33 | CN1CCC2(CC1)CCN(c1nc(N3CC4CCC(C3)N4)c3cc(Cl)c(-c4cc(O)cc5ccccc45)c(F)c3n1)C2 [Compound 41] | > 5 µM | 0.5 to 5 µM
34 | CN1CCC2CCN(c3nc(N4CC5CCC(C4)N5)c4cc(Cl)c(-c5cc(O)cc6ccccc56)c(F)c4n3)CC21 (centres unmarked) [Compound 42] | > 5 µM | 0.5 to 5 µM
35 | CN1CCC2CN(c3nc(N4CC5CCC(C4)N5)c4cc(Cl)c(-c5cc(O)cc6ccccc56)c(F)c4n3)CC2C1 (centres unmarked) [Compound 43] | > 5 µM | 0.5 to 5 µM
36 | CN1CCC2(CCN(c3nc(N4CC5CCC(C4)N5)c4cc(Cl)c(-c5cc(O)cc6ccccc56)c(F)c4n3)C2)C1 (centres unmarked) [Compound 44] | > 5 µM | 0.5 to 5 µM
37 | CN1CC2(CCN(c3nc(N4CC5CCC(C4)N5)c4cc(Cl)c(-c5cc(O)cc6ccccc56)c(F)c4n3)CC2)C1 [Compound 45] | > 5 µM | 0.5 to 5 µM
38 | Oc1cc(-c2c(Cl)cc3c(N4CC5CCC(C4)N5)nc(OCCN4CCC(O)C4)nc3c2F)c2ccccc2c1 (centres unmarked) [Compound 46] | 0.5 to 5 µM | > 5 µM
39 | Cc1cccc2cc(O)cc(-c3c(Cl)cc4c(N5CC6CCC(C5)N6)nc(OC[C@@]56CCCN5C[C@H](F)C6)nc4c3F)c12 [Compound 47] | < 0.5 µM | < 0.5 µM
40 | CC(C)N1CC(Nc2nc(N3C[C@@H](C)NC[C@@H]3C)c3cc(Cl)c(-c4cc(O)cc5ccccc45)c(F)c3n2)C1 [Compound 49] | > 5 µM | > 5 µM
41 | CN1CC(COc2nc(N3CC4CCC(C3)N4)c3cc(Cl)c(-c4cc(O)cc5ccccc45)c(F)c3n2)CC(F)(F)C1 (centres unmarked) [Compound 50] | 0.5 to 5 µM | 0.5 to 5 µM
42 | CN(C)CC1CN(c2nc(N3CC4CCC(C3)N4)c3cc(Cl)c(-c4cc(O)cc5ccccc45)c(F)c3n2)C1 [Compound 51] | > 5 µM | 0.5 to 5 µM
43 | CN(C)C1CCN(c2nc(N3CC4CCC(C3)N4)c3cc(Cl)c(-c4cc(O)cc5ccccc45)c(F)c3n2)C1 (centres unmarked) [Compound 52] | > 5 µM | 0.5 to 5 µM
44 | CN(C)CC1CCN(c2nc(N3CC4CCC(C3)N4)c3cc(Cl)c(-c4cc(O)cc5ccccc45)c(F)c3n2)CC1 [Compound 53] | > 5 µM | 0.5 to 5 µM
45 | CN(C)C1CCN(c2nc(N3CC4CCC(C3)N4)c3cc(Cl)c(-c4cc(O)cc5ccccc45)c(F)c3n2)CC1 [Compound 54] | > 5 µM | 0.5 to 5 µM
46 | N#Cc1cc2c(N3CC4CCC(C3)N4)nc(OC[C@@]34CCCN3C[C@H](F)C4)nc2c(F)c1-c1cc(O)cc2cccc(Cl)c12 [Compound 55] | < 0.5 µM | < 0.5 µM
47 | CN(C)C1CCCN(c2nc(N3CC4CCC(C3)N4)c3cc(Cl)c(-c4cc(O)cc5ccccc45)c(F)c3n2)C1 (centres unmarked) [Compound 56] | > 5 µM | 0.5 to 5 µM
48 | CN1CCOCC1COc1nc(N2CC3CCC(C2)N3)c2cc(Cl)c(-c3cc(O)cc4ccccc34)c(F)c2n1 (centres unmarked) [Compound 57] | > 5 µM | 0.5 to 5 µM
49 | Oc1cc(-c2c(Cl)cc3c(N4CC5CCC(C4)N5)nc(OC[C@@]45CCCN4C[C@H](F)C5)nc3c2F)c2c(Cl)cccc2c1 [Compound 58] | < 0.5 µM | < 0.5 µM
